Assay results as given in patent US20040013696A1, “Use of ellagic acid as an anti-pollution cosmetic agent” (priority 2000, published 2004).

What was measured:
human keratinocytes [1] = system: human keratinocytes
Procedure: The study was performed on a monolayer culture of human keratinocytes obtained from plastic surgeries. The cells are inoculated on D-3 into 96-well dishes at a rate of 25 000 cells/cm^2 in 100 μl of culture medium. The incubations are performed at 37° C. in a humid atmosphere enriched with 5% CO2.
Initially, the cells are treated for 24 hours with increasing concentrations (0, 10, 25, 50, 75, 100, 150 and 200 μM) of cadmium chloride (CdCl2), so as to determine its cytotoxicity. […]
At the end of the treatment, the cell viability is determined by means of the neutral red incorporation test (POS 55/006) and reading at 550 nm (ref: Borenfreund, E and Puerner, J. A. (1984) A simple quantitative procedure using monolayer cultures for cytotoxicity assays. Tissue Culture Methods; 9: 7-9).
The cells are rinsed with PBS buffer in order to remove the treatment solutions, and are then incubated for three hours at 37° C. in a neutral red solution (100 μl) prepared to a concentration of 0.5 mg/ml in the culture medium. […] The amount extracted is determined by reading the optical density on a spectrophotometer at 550 nm.
The concentration of CdCl2 that induces a 50% drop in the cell viability (IC-50) is then calculated.

human keratinocytes [2] = assay: Covalent binding of 14C-benzo[a]pyrene to cell proteins (alkylation of nucleophiles); type: cell-based
Excerpt: Polycyclic aromatic hydrocarbons (PAHs), adsorbed onto the surface of particles and dust conveyed by the urban atmosphere, can penetrate into skin tissue and be biotransformed therein. Their metabolism in the liver, which is well-described in the literature, leads to the formation of monohydroxylated metabolites (detoxification pathway), epoxides and diol epoxides (toxifying pathway). It follows the same profile in the skin. […] After consequent or repeated exposures to the pollutant, its potential toxicity can lead to a contact hypersensitivity in the case of the alkylation of proteins. […] The cells are inoculated on D-3 into 6-well dishes at a rate of 53 000 cells/cm^2. The incubations are performed at 37° C. in humid atmosphere enriched with 5% CO2. […] The covalent binding to cell proteins is measured according to the protocol of Hoellinger et al., adapted to a filtration method in 96-well microplates (H. Hoellinger, M. Sonnier, J. Gray, T. A. Connors, J. Pichon and N. H. Nam. In vitro covalent binding of […], bioresmethrin and their common alcohol to hepatic proteins. Toxicol. Appl. Pharmacol., 1985, 77, 11-18). […] The aim of this series of washes is to remove from the proteins any radioactivity not covalently bound. […] Samples are then taken to assay the proteins and count the radioactivity of the solution. The results are expressed as nmol of B[a]P bound per mg of proteins.

human keratinocytes [3] = assay: Protection against the effects of ozone: ozone-induced lipid hydroperoxides (DCFH-DA fluorescence); type: cell-based; details: ellagic acid 200 μM; for % fluorescence observed ± SEM, relative to the unprotected controls: ozone 10 ppm
Procedure: Ozone has the capacity to oxidize cell constituents, especially generating carbonylated proteins and lipid hydroperoxides. Quantification of the lipid hydroperoxides is one means of measuring the oxidative stress induced by an exposure of skin tissue to this pollutant. A decrease in their content indicates a protective effect of ellagic acid. […] The incubations are performed at 37° C., 5% CO2 in humid atmosphere. […] Hydroperoxides constitute an intracellular stress marker. They are detected and quantified by means of a fluorescence technique (Lebel C. P., Ischiropoulos H. and Bondy S. C. […] Chem. Res. Toxicol.: 5: 227-231). […] The cells, pretreated for 24 hours with ellagic acid, are then washed with phosphate-buffered saline (PBS) and placed in contact for 30 minutes with a solution of DCFH-DA (500 μl/well), prepared in the culture medium to a concentration of 320 μM. […] They are then exposed to ozone (10 ppm), in a humid atmosphere, in an incubator set at 37° C. The formation of fluorescent DCF (excitation screen at 485 nm and emission screen at 530 nm) resulting from the production of hydroperoxides is measured after different times of exposure to ozone: 0, 5, 10 and 20 minutes. […] For each time, the fluorescence values of the unprotected controls are set at 100%. The resulting values in the presence of ellagic acid are then expressed relative to this control value. […] This protection is at a maximum from 5 minutes of exposure onward (71.8% drop in induced stress). It is still significant after 20 minutes of exposure (47.7% drop in induced stress).

[Cl][Cd][Cl] [cadmium chloride, reference compound]
IC50 (human keratinocytes [1]; read-out: IC-50 of cadmium chloride, Mean ± SEM, without ellagic acid, 24 hours, n=4): 39 µM

c1ccc2c(c1)cc1ccc3cccc4ccc2c1c34 [B (a) P, benzo(a)pyrene, reference compound]
covalent binding to keratinocyte proteins (human keratinocytes [2]; benzo(a)pyrene alone at 20 μM): 0.28 nmol of B(a)P per mg of protein

O=c1oc2c(O)c(O)cc3c(=O)oc4c(O)c(O)cc1c4c23 [ellagic acid, 2,3,7,8-tetrahydroxy-(1)benzopyrano(5,4,3-cde)(1)benzopyran-5,10-dione]
drop in induced stress (human keratinocytes [3]; 5 minutes of exposure to ozone): 71.8% | drop in induced stress (human keratinocytes [3]; 20 minutes of exposure to ozone): 47.7% | % fluorescence observed ± SEM, relative to the unprotected controls (human keratinocytes [3]; 5 min. of contact): 28.2 ± 3.3% | % fluorescence observed ± SEM, relative to the unprotected controls (human keratinocytes [3]; 10 min. of contact): 36.3 ± 3.4% | % fluorescence observed ± SEM, relative to the unprotected controls (human keratinocytes [3]; 20 min. of contact): 52.3 ± 4.4% | maximum dose of ellagic acid noncytotoxic to the cells (human keratinocytes [1]; human, 24 h): 200 µM | reduction in the reactivity of B(a)P by a factor (human keratinocytes [2]; in the presence of ellagic acid 100 μM): 3.1
